According to patent publication US4491675A, “Hydroformylation process using triarylphosphine and bisphosphine monooxide ligands” (Union Carbide Corporation, priority 1981, dated 1985):

Assays:
[1] = Continuous propylene hydroformylation, long term catalyst stability (Examples 1 to 13, Table I); conditions: for Aldehyde Product Reaction Rate, day 4, corrected reaction rate (in parenthesis) / Aldehyde Product Reaction Rate, day 4: day 4 at 130° C.; for Aldehyde Product Reaction Rate, day 4, corrected reaction rate (in parenthesis): corrected with mathematical rate model for standard rhodium-triphenylphosphine catalyst; for % Activity Decline: decline in catalyst activity from Day 1 through Day 4 at 130° C.; for Aldehyde Product Reaction Rate, day 1 / Aldehyde Product Reaction Rate, day 4: observed, total gas about 165 psig, Rh 100 or 200 ppm; for Aldehyde Product Reaction Rate, day 1: day 1 at 130° C.; for thermal catalyst stability: 130° C., in words, relative comparison of ligand systems of Table I
Method: A series of long term catalyst stability experiments were conducted in a glass reactor operating in a continuous propylene hydroformylation mode. The reactor consisted of a three ounce pressure bottle submersed in an oil bath with a glass front for viewing. In each experiment about 20 ml. of a freshly prepared rhodium catalytic precursor solution was charged to the reactor with a syringe after purging the system with nitrogen. Each precursor solution contained from 100 to 200 ppm rhodium calculated as free metal (as noted in Table I below) introduced as rhodium dicarbonyl acetylacetonate, a phosphorus ligand or mixture of phosphorus ligands and a solvent.
After closing the reactor, the system was again purged with nitrogen and the oil bath was heated to furnish the desired hydroformylation reaction temperature. […] The flows of the feed gases (carbon monoxide, hydrogen and propylene) were controlled individually with mass flow meters and the feed gases dispersed into the precursor solution via fritted glass spargers. The unreacted portion of the feed gases stripped out the product aldehydes. […] The product aldehydes for each experiment were analyzed over the first day of continuous operation at 130° C. and over the fourth day of continuous operation at 130° C. and the average reaction rates for each experiment in terms of gram moles per liter per hour of total product aldehydes for the first and fourth days of continuous operation at the average measured partial pressures of hydrogen, carbon monoxide and propylene for said days are given in Table I below.

[2] = Continuous propylene hydroformylation with stepwise CO partial pressure increase, catalyst stability (Examples 14 to 18, Table II); conditions: for Aldehyde Product Reaction Rate, day 12, corrected reaction rate (in parenthesis): day 12 at 130° C., corrected with mathematical rate model for standard rhodium-triphenylphosphine catalyst; for % Activity Decline: decline in catalyst activity from Day 6 through Day 12 at 130° C.; for Aldehyde Product Reaction Rate, day 6: observed, day 6 at 130° C., total gas about 165 psig, Rh 200 or 300 ppm
Excerpt: During days 9 to 13 the carbon monoxide partial pressure was increased stepwise from about 10 to 25 psia and returned to about 10 psia for day 14.

Row | Compound | Aldehyde Product Reaction Rate, day 4, corrected reaction rate (in parenthesis) [1] | % Activity Decline [1] [%] | Aldehyde Product Reaction Rate, day 1 [1] [g·mol/L/h] | Aldehyde Product Reaction Rate, day 4 [1] [g·mol/L/h] | Aldehyde Product Reaction Rate, day 12, corrected reaction rate (in parenthesis) [2] | % Activity Decline [2] [%] | Aldehyde Product Reaction Rate, day 6 [2] [gmoles/L hr] | thermal catalyst stability [1]
1 | (CH3 OC6 H4)3 P [Example 5] | 1.36 g·mol/L/h | 13 | 1.57 | 1.68 |  |  |  | 
2 | c1ccc(P(c2ccccc2)c2ccccc2)cc1 [Example 14, (C6 H5)3 P] |  |  |  |  | .76 gmoles/L hr | 32 | 1.12 | 
3 | (CH3 C6 H4)3 P [Example 3] | 1.02 g·mol/L/h | 25 | 1.36 | 1.49 |  |  |  | 
4 | O=P(CCP(c1ccccc1)c1ccccc1)(c1ccccc1)c1ccccc1 [Example 9, (C6 H5)2 P(CH2)2 P(O)(C6 H5)2] | 0.63 g·mol/L/h | 40 | 1.06 | 0.87 |  |  |  | inferior thermal stability
5 | CH3 -C6 H4)3 P [Example 15] |  |  |  |  | 1.24 gmoles/L hr | 17 | 1.50 | 
6 | c1ccc(P(c2ccccc2)c2ccccc2)cc1 [Example 1, (C6 H5)3 P] | 1.00 g·mol/L/h | 42 | 1.74 | 1.12 |  |  |  | inferior thermal stability
7 | (CH3 O-C6 H4)3 P [Example 16] |  |  |  |  | 1.14 gmoles/L hr | 14 | 1.33 | 
8 | (ClC6 H4)3 P [Example 8] | .32 g·mol/L/h | 46 | 0.59 | 0.49 |  |  |  | 
